# Experiments:
# [1] = test system: Pgp in primary rBCEC monolayers; experiment: Concentration equilibrium transport assay (CETA), primary rBCEC monolayers; assay type: in vitro ADME, rat; conditions: Rho123 2 µM; primary rBCECs
# Protocol: For these experiments, a concentration equilibrium transport assay (CETA) was used, which is more sensitive to identify Pgp substrates than conventional bidirectional (concentration gradient) transport assays. In the CETA, the drug is added to both (apical and basolateral) sides of the monolayer, so that the initial drug concentration is the same in both compartments, thereby minimizing the effect of passive diffusion across the cell monolayer.
# Additionally, vectorial drug transport across RBE4-MDR1-EGFP, hCMEC/D3-MDR1-EGFP, LLC-MDR1, and primary rBCEC monolayers was studied using 2 µM Rho123 as a fluorescent Pgp substrate essentially following the same protocol as described for [^3H]dLop. Transport was measured using a FLUOstar OPTIMA fluorescence reader (ex.: 485 nm, em.: 520 nm; BMG Labtech), analyzing samples from basolateral and apical compartments collected at the various time points.
# Pgp in RBE4-WT cells = experiment: Rhodamine 123 uptake/accumulation assay, RBE4-WT cells; assay type: cell-based, rat
# Protocol: The functionality of Pgp in RBE4-WT, RBE4-MDR1-EGFP, hCMEC/D3-WT, hCMEC/D3-MDR1-EGFP cells, and primary rBCECs was analyzed by measuring the uptake of the fluorescent Pgp substrate Rho123 (Sigma-Aldrich). Cells were grown on 6-well plates and cultured for seven days in the presence or absence of doxycycline (1 µg/mL, Biochrom). […] Afterward, Rho123 (5 µM, dissolved in ethanol) was added and cells were incubated for another two hours. Rho123 transport was terminated by washing the cells twice with ice-cold PBS. Intracellular Rho123 concentration was determined by cell lysis in standard lysis buffer (25 mM Tris, 50 mM NaCl, 0.5% (w/v) sodium deoxycholate, 0.5% (w/v) Triton X-100) and measurement of fluorescence intensity with the FLUOstar OPTIMA (ex.: 485 nm, em.: 520 nm; BMG Labtech). Protein concentrations were determined using a BCA assay kit (Thermo Fisher Scientific). Rho123 uptake was obtained for each condition in triplicates and calculated as absolute fluorescence per mg protein. Additionally, Pgp functionality was expressed as multidrug resistance activity factor (MAF) as described by Huber et al.. This factor describes Pgp efflux activity based on differences in intracellular Rho123 accumulation in cells after Pgp inhibition compared to cells with active Pgp-mediated efflux. Thus, higher MAF values correlate with increased Pgp activity. For better comparison, differences in Rho123 accumulation are normalized to intracellular Rho123 levels in inhibitor-treated cells. MAF values for Pgp were calculated according to Huber et al. 2012 utilizing the following equation: MAF (%) = 100 · (MFITQ − MFI0)/(MFITQ) where MFITQ and MFI0 represent the mean fluorescence intensity of intracellular Rho123 in tariquidar (TQ)-treated and non-treated cells, respectively.
# Pgp in primary rBCECs = experiment: Rhodamine 123 uptake/accumulation assay, primary rBCECs; assay type: cell-based, rat
# Source text: The RBE4 and hCMEC/D3 cell lines used here are immortalized, which has the advantage that these cells are stable for several passages and may yield a large number of endothelial cells with the same genetic and phenotypical characteristics. The immortalization status, however, causes several alterations as compared to the native original cell type, including low junctional tightness of cell monolayers and reduced expression of efflux transporters such as Pgp. Therefore, for comparison with the MDR1-EGFP transduced rat RBE4 cells, experiments were also performed with primary cultured rat brain capillary endothelial cells (rBCECs). As described by us previously, rBCECs were prepared following a protocol by Régina et al. and Perrière et al. from 2 to 3 weeks old Wistar rats (obtained from Charles River; Sulzfeld, Germany). All animals were treated according to protocols evaluated and approved by the ethical committee of our university. In short, meninges were removed from cerebral cortices in phosphate-buffered saline (PBS) with 1% penicillin (100 U/mL)/streptomycin (100 μg/mL) (Biochrom AG) on ice. Subsequently, cortices were mechanically dissociated with scalpels. […]
# The functionality of Pgp in RBE4-WT, RBE4-MDR1-EGFP, hCMEC/D3-WT, hCMEC/D3-MDR1-EGFP cells, and primary rBCECs was analyzed by measuring the uptake of the fluorescent Pgp substrate Rho123 (Sigma-Aldrich). […] Intracellular Rho123 concentration was determined by cell lysis in standard lysis buffer (25 mM Tris, 50 mM NaCl, 0.5% (w/v) sodium deoxycholate, 0.5% (w/v) Triton X-100) and measurement of fluorescence intensity with the FLUOstar OPTIMA (ex.: 485 nm, em.: 520 nm; BMG Labtech). Protein concentrations were determined using a BCA assay kit (Thermo Fisher Scientific). Rho123 uptake was obtained for each condition in triplicates and calculated as absolute fluorescence per mg protein. Additionally, Pgp functionality was expressed as multidrug resistance activity factor (MAF) as described by Huber et al.. […]
# [2] = target: Pgp in LLC-MDR1 monolayers (Homo sapiens, UniProt P08183); conditions: Rho123 2 µM
# Sequence of Pgp in LLC-MDR1 monolayers (P08183 whole entry): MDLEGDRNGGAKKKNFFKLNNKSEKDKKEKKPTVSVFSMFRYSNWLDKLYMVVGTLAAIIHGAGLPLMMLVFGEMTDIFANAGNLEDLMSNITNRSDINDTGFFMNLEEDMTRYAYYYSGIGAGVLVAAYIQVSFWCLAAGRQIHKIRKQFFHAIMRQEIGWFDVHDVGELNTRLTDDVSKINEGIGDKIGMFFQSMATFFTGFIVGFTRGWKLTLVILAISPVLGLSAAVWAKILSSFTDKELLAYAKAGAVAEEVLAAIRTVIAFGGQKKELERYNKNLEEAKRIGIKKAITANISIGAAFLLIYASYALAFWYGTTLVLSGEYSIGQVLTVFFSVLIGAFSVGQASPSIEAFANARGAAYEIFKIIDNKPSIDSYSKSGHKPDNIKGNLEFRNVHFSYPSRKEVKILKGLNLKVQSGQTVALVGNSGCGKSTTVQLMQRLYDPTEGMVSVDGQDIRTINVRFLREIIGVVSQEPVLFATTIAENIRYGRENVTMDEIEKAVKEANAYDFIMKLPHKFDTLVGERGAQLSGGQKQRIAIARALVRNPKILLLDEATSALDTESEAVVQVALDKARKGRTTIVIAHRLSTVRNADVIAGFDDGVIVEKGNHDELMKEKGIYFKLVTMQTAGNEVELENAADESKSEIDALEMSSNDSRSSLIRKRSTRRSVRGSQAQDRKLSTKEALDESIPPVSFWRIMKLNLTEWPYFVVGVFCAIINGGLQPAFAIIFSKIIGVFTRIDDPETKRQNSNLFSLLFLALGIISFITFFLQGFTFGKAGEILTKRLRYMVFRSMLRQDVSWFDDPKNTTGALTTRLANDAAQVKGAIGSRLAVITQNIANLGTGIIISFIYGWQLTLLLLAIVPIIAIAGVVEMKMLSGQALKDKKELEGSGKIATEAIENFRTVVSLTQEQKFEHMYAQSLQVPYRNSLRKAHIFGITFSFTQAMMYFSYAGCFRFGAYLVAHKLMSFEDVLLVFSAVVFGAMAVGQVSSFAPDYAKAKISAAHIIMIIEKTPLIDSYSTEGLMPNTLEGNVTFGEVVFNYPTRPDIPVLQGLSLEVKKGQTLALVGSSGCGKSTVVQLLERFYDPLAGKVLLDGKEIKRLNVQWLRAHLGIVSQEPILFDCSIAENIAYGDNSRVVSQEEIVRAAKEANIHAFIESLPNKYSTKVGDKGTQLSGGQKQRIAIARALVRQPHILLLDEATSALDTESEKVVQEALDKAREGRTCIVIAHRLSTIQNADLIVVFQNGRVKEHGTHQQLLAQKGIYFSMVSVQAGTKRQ
# [3] = Rho123 5 µM, 2 h, without tariquidar
# [4] = with vs without tariquidar 0.5 µM
compound,measurement,setting,value
"COC(=O)c1ccccc1-c1c2ccc(=N)cc-2oc2cc(N)ccc12 [Rho123, rhodamine 123]",vectorial transport in CETA (apical vs basolateral concentrations),[1],significantly higher in the apical vs. basolateral chambers
same,intracellular Rho123 accumulation,Pgp in RBE4-WT cells; [3],"86,513 ± 2021 absolute fluorescence per mg p"
same,multidrug resistance activity factor (MAF) from intracellular Rho123 accumulation,Pgp in RBE4-WT cells; [4],37.5% ± 4.2
same,intracellular Rho123 accumulation,Pgp in primary rBCECs; [3],"56,482 ± 2456 absolute fluorescence per mg p"
same,multidrug resistance activity factor (MAF) from intracellular Rho123 accumulation,Pgp in primary rBCECs; [4],61.2% ± 2.7
same,vectorial transport in CETA,[2],significant vectorial transport was observed

# Reference: paper PMC8330100, “Similarities and differences in the localization, trafficking, and function of P-glycoprotein in MDR1-EGFP-transduced rat versus human brain capillary endothelial cell lines” (Fluids and Barriers of the CNS, 2021)
